Laboratory results reported in ChEMBL document CHEMBL1201862, “PubChem BioAssay data set” (2004).
Active and inactive are the calls of the source.

Assays:
[1] = Luminescence Cell-Based Dose Confirmation HTS to Identify Inhibitors of Polyadenylation.; type: functional
[2] = biological target: T1, Mannose-6-phosphate isomerase (Homo sapiens, UniProt P34949); test: inhibitors of human PMI, primary screen, biochemical, fluorescence intensity, coupled assay (AID 1209)
T1 sequence (P34949 whole entry): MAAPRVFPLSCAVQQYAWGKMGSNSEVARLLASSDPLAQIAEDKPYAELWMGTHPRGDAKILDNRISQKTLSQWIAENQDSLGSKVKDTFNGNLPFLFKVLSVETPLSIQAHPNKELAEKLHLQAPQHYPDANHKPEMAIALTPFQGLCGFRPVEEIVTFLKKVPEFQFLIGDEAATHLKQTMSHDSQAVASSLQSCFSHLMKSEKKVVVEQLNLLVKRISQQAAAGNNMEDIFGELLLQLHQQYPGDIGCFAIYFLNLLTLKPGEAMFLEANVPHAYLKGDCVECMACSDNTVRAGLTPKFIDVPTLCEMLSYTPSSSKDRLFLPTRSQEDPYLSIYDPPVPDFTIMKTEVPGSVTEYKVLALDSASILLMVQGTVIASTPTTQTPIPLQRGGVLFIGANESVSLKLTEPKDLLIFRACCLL

[3] = A cytotoxicity screen of small molecule inhibitors of the PhoP region in Salmonella typhi identified in the primary screen. [Related pubchem assays: 1850, 1864, 1985 ]; type: functional
[4] = HEp-2 cell cytotoxicity, dose response, cytotoxicity control for RSV inhibitor project, HTS (AID 2410); type: functional; conditions: human respiratory syncytial virus
[5] = cells
[6] = system: Streptococcus sp. 'group A'; test: growth inhibition of control SK(-) GAS strain, dose response, counter-screen for streptokinase expression inhibitor project, luminescence, kanamycin, BacTiterGlo, confirmation (AID 1900); type: functional, organism-based
[7] = biological target: T2, Streptokinase A (Streptococcus pyogenes serotype M1, UniProt P10520); test: S. pyogenes streptokinase expression inhibitors, potency, dose response, plasminogen activation absorbance, OD405 (AID 1914); type: functional, Streptococcus pyogenes M1 GAS;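 further: secreted streptokinase activity via plasminogen activation per viability signal from cell pellet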
T2 sequence (P10520 whole entry): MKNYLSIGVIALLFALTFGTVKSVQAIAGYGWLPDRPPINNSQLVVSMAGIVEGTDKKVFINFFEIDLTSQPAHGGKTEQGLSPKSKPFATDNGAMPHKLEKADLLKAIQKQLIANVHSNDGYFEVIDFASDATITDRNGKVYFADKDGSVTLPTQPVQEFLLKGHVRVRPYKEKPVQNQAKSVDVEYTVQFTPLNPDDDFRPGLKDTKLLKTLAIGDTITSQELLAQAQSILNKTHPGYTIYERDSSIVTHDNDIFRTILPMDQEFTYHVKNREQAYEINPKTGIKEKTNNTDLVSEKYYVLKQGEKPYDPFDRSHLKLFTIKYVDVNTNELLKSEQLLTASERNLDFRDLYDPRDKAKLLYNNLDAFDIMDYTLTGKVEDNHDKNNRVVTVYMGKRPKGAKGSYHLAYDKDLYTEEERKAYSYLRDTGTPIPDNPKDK

[8] = system: Streptococcus; test: Group A Streptococcus viability loss, dose response, counter-screen for streptokinase expression inhibitor project, luminescence, BacTiterGlo (AID 1915); type: functional, organism-based;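 further: potency for reduction of bacterial viability or growth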
[9] = M. tuberculosis H37Rv growth inhibitors, H37Rv strain (AID 1626); type: functional
[10] = cytotoxicity toward NIH3T3 fibroblasts, dose response, counter-screen, cell-based, ATP luminescence, mouse fibroblasts (AID 2010); type: functional;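 further: cells exposed to compound for about 90 hours before reading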
[11] = Luminescence Cell-Based Dose Response HTS to Identify Activators of Luciferase Translation or Activity in H4 […] Cells. [Related pubchem assays: 1829 (Project Summary), 1814 (Primary HTS)]; type: functional
[12] = Luminescence Cell-Based Dose Response to Identify Activators of 5'UTR Stem-Loop Driven Prion Protein mRNA Translation in H4-C Neuroglioblastoma Cells. [Related pubchem assays: 1829 (Project Summary), 1814 (Primary HTS)]; type: functional
[13] = inhibitors of intracellular T. cruzi replication, confirmation, NIH3T3 host cells, beta-gal luminescence (AID 2044); type: functional, cell-based;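 further: intracellular parasites grown in NIH/3T3 mouse fibroblasts as host cells; luminescent beta-galactosidase reporter signal from transgenic T. cruzi replicating inside host cells; inhibitors lower the luminescence signal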
[14] = Luminescence Cell-Based Dose Confirmation to Identify Activators of 5'UTR Stem-Loop Driven Alpha-Synuclein mRNA Translation in H4 Neuroglioblastoma Cells. [Related pubchem assays: 1829 (Project Summary), 1814 (Primary HTS)]; type: functional
[15] = biological target: Genome polyprotein (dengue virus type 2, UniProt P29990); test: Dengue-2 NS5 methyltransferase inhibitors, primary screen, biochemical, confirmation dose response (AID 588689); type: functional
[16] = system: H4; test: Luminescence Cell-Based Dose Response HTS to Identify Activators of 5'UTR Stem-Loop Driven Prion Protein mRNA Translation in H4 Neuroglioblastoma Cells. [Related pubchem assays: 1829 (Project Summary), 1814 (Primary HTS)]; type: functional; conditions: Homo sapiens
[17] = biological target: T3, Histone-lysine N-methyltransferase NSD2 (Homo sapiens, UniProt O96028); type: biochemical
T3 sequence (O96028 whole entry): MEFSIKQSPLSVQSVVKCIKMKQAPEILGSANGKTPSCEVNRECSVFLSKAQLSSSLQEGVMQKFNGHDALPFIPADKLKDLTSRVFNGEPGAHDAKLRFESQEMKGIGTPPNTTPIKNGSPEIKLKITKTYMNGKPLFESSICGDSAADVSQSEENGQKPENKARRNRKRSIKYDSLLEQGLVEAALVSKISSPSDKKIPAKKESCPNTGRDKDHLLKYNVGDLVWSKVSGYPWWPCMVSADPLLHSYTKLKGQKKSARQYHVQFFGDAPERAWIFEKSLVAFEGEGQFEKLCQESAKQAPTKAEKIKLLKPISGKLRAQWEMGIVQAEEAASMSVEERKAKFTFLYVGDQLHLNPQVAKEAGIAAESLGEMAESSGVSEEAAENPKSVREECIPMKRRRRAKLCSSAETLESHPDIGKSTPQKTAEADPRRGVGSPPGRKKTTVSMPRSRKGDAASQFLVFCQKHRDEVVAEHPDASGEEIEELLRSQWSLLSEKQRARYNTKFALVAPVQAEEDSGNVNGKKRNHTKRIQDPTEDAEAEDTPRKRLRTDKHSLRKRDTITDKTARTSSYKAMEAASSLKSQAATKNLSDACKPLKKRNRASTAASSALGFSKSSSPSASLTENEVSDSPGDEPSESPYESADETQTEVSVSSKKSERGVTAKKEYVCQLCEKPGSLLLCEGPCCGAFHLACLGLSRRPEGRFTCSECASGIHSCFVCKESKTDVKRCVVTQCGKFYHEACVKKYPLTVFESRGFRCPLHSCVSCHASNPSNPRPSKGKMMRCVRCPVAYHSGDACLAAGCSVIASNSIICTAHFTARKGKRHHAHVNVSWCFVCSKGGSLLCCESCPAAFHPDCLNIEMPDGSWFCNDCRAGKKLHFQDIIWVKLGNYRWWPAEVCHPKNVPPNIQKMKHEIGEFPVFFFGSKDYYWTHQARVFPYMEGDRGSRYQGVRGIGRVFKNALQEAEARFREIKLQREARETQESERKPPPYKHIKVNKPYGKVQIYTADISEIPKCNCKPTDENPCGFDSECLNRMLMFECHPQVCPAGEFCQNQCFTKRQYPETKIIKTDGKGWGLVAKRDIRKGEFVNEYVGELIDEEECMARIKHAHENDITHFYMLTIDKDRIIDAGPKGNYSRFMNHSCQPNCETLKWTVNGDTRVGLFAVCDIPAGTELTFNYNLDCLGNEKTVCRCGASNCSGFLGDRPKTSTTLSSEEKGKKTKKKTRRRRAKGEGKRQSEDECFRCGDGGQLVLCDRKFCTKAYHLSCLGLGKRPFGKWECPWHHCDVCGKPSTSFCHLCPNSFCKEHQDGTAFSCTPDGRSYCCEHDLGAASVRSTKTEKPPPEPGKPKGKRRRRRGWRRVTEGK

[18] = Luminescence Cell-Based Dose Response to Identify Activators of Luciferase Translation or Activity in H4-C Neuroglioblastoma Cells. [Related pubchem assays: 1829 (Project Summary), 1814 (Primary HTS)]; type: functional
[19] = Luminescence Cell-Based Dose Confirmation HTS to Identify Activators of 5'UTR Stem-Loop Driven Alpha-Synuclein mRNA Translation in H4 Neuroglioblastoma Cells. [Related pubchem assays: 1829 (Project Summary), 1814 (Primary HTS)]; type: functional
[20] = biological target: T4, Carboxy-terminal domain RNA polymerase II polypeptide A small phosphatase 1 (Homo sapiens, UniProt Q9GZU7); test: inhibitors of CTDSP1, concentration-response testing, biochemical assay, absorbance-based, actives from ultra-high-throughput screening (AID 540297); type: functional
T4 sequence (Q9GZU7 whole entry): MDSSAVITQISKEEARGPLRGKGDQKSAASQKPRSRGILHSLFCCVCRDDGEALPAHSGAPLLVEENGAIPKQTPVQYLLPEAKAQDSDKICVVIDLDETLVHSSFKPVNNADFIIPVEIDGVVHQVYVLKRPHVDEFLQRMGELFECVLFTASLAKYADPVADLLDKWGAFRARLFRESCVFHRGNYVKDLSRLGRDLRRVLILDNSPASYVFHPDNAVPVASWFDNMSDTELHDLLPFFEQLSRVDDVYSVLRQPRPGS

[21] = biological target: NS3 (Hepatitis C virus, UniProt A3EZJ3); test: PubChem AID 2173; set-up: species or system Hepacivirus hominis
[22] = biological target: Protein-tyrosine kinase 2-beta (Homo sapiens, UniProt Q14289);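 further: potency of inhibitors of PYK2 kinase phosphorylation of poly-GT substrate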
[23] = Luminescence Cell-Based Dose Retest to Confirm Inhibitors of Cancer Stem Cells. [Related pubchem assays (depositor defined):AID2717, AID2721]; type: functional; conditions: Homo sapiens
[24] = biological target: T5, Estrogen receptor (Homo sapiens, UniProt P03372);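 further: potency for inhibiting coactivator peptide recruitment to the receptor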
T5 sequence (P03372 whole entry): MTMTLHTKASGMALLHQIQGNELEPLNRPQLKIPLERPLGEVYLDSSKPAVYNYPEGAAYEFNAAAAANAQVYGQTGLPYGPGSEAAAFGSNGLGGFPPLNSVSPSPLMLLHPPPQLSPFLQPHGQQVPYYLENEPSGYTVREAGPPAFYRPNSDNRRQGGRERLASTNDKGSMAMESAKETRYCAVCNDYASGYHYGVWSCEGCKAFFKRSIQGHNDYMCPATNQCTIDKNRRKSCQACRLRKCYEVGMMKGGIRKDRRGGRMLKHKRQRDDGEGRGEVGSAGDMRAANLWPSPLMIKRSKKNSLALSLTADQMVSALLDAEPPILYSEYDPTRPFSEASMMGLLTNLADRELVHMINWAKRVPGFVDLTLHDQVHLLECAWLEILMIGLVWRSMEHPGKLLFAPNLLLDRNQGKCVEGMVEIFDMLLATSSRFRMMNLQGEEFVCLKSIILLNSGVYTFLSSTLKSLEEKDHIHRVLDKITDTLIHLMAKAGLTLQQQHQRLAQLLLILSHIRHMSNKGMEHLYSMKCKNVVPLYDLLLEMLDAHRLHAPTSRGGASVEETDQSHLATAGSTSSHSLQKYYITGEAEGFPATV

[25] = growth suppression of PTEN-null colon cells, dose response, cell-based, HCT116 PTEN knockout (AID 1047); type: functional;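 further: HCT116 colon tumor cells with PTEN knocked out; cells exposed to compound for 60 hours before readout; potency for loss of cell viability measured by luminescence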
[26] = growth suppression of beta-catenin-knockout colon cells, dose response, cell-based, HCT116, human colon tumor (AID 1045); type: functional;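 further: HCT116 colon tumor cells with beta catenin knocked out; cells exposed to compound for 60 hours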
[27] = biological target: Neurotensin receptor type 1 (Homo sapiens, UniProt P30989); type: functional;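 further: Image-based confirmatory dose-response assay measuring agonist activity at NTR1; NTR1-expressing U2OS osteosarcoma cells imaged for beta-arrestin GFP spot formation; agonist potency where compounds increase beta-arrestin recruitment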
[28] = microbe, parasite or virus in culture; type: functional; conditions: Mycobacterium tuberculosis

Chain of Neurotensin receptor type 1 (P30989 whole entry): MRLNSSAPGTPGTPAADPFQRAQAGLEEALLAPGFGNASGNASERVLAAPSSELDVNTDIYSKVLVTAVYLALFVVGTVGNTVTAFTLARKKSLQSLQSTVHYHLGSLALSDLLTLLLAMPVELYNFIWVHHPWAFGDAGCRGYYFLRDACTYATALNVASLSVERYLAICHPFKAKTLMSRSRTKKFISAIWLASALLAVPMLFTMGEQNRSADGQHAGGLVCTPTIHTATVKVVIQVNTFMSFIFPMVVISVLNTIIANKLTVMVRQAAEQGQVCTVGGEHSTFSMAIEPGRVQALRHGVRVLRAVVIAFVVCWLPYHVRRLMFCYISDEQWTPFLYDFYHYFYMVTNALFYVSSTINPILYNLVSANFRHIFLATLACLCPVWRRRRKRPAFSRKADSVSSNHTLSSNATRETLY
Chain of Genome polyprotein (P29990 2492-3391 limits assumed): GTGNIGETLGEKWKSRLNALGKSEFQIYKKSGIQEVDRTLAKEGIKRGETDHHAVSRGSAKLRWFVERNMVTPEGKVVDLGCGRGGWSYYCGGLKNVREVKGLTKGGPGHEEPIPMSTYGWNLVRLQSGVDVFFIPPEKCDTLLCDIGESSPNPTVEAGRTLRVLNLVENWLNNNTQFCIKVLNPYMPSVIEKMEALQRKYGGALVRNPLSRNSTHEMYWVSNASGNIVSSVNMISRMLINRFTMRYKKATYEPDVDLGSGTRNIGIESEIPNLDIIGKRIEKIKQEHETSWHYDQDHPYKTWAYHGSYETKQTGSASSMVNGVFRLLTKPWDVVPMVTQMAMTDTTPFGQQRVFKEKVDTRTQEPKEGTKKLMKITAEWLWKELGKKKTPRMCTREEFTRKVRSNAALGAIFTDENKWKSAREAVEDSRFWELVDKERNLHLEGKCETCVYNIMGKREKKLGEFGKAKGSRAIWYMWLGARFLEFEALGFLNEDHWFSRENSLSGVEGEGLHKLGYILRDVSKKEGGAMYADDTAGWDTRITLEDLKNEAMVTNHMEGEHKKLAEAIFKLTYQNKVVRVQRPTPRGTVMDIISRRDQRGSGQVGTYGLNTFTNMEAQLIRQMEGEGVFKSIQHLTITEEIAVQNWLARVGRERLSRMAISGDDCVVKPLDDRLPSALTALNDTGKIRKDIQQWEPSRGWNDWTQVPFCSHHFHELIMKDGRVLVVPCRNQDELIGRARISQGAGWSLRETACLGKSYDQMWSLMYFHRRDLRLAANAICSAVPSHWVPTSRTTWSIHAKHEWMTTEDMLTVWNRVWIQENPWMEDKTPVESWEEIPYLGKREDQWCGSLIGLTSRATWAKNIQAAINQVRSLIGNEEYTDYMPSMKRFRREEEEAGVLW
Chain of NS3 (A3EZJ3 whole entry): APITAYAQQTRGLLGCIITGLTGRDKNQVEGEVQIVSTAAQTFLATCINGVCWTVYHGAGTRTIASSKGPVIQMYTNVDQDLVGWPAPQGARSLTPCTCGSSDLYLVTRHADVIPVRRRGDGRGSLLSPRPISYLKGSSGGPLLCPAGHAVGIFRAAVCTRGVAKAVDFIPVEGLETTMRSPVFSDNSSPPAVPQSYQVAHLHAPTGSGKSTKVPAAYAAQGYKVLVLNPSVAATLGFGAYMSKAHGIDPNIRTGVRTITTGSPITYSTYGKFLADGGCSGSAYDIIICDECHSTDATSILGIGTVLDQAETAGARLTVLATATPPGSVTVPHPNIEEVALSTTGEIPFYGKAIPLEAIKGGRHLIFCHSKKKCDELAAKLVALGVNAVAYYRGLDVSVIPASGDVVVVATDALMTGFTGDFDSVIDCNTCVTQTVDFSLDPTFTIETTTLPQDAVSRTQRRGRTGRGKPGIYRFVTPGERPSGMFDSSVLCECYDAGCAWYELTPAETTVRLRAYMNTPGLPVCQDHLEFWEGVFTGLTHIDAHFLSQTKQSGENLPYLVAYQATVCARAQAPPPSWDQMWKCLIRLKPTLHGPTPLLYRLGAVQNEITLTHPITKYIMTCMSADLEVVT
Chain of Protein-tyrosine kinase 2-beta (Q14289 whole entry): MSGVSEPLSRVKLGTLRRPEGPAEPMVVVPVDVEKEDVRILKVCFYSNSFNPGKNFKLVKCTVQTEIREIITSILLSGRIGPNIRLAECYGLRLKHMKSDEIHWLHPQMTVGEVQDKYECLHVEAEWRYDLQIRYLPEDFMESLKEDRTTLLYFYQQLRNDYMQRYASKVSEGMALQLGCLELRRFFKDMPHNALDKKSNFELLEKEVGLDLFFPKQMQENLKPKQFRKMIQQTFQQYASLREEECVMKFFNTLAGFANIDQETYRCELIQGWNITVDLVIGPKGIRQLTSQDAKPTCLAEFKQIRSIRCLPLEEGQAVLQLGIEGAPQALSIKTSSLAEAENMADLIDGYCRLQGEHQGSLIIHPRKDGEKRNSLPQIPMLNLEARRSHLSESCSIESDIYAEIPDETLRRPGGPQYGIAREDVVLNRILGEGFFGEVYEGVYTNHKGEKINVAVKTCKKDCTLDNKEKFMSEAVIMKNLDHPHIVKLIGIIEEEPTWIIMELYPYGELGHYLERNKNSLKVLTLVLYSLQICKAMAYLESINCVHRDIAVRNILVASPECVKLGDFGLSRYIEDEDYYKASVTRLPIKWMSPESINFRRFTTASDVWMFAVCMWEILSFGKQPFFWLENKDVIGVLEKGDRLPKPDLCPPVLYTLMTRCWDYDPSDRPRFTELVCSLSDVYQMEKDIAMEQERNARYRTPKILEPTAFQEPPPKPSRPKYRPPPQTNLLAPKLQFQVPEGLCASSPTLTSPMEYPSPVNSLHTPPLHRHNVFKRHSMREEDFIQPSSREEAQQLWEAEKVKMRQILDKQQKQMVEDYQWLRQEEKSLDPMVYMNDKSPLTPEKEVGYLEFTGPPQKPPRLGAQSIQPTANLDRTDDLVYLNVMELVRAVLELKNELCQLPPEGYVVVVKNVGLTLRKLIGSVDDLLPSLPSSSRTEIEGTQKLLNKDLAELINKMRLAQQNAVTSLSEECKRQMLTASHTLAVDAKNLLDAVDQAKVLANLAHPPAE

COc1cc(C(=O)Nc2c(C)cc(C)cc2C)c(Br)c(OC)c1OC
EC50 [1]: > 120 µM (not active)

CCN=C(S)Nc1cc(-c2ccc(Cl)cc2)[nH]n1
IC50 [2]: > 50 µM (not active)
EC50 [3]: > 50 µM (active)

O=[N+]([O-])c1ccccc1S(=O)(=O)Nc1cccc(-c2ccc(N3CCOCC3)nn2)c1
CC50 [4]: > 50 µM (active)
IC50 [5]: 16.8 µM (active)

COc1ccc(OCCn2c(NC(=O)c3ccco3)nc3ccccc32)cc1
EC50 [6]: 5.47 µM (active)
EC50 [7]: > 150 µM (not active)
EC50 [8]: > 150 µM (not active)
IC50 [9]: > 100 µM (active)

Cc1nc2ccc(NC(=O)C(F)(F)F)cc2o1
IC50 [9]: > 100 µM (active)

O=C(O)c1cccc(NC2=C(Cl)C(=O)c3ccccc3C2=O)c1
EC50 [10]: 5.21 µM (active)
EC50 [11]: < 0.1 µM (active)
EC50 [12]: > 12 µM (not active)
EC50 [13]: > 30 µM (not active)
EC50 [14]: > 12 µM (not active)
IC50 [15]: 15.6 µM (active)
EC50 [16]: 6.76 µM (active)
AC50 [17]: 5.2 µM (active)
EC50 [18]: 0.149 µM (active)
EC50 [19]: 1.44 µM (active)

CC[n+]1c(C)n(-c2ccccc2)c2ccc(NC(C)=O)cc21
IC50 [2]: > 50 µM (not active)
IC50 [20]: 5.18 µM (active)

Cc1ccc(CCCOC(=O)C[N+]2(C)CCCC2)cc1
IC50 [2]: > 50 µM (not active)
IC50 [20]: 11 µM (active)

CC(C)C(C)(C#N)NC(=O)CSc1nc2scc(-c3ccco3)c2c(=O)n1-c1ccccc1 (stereo unspecified)
IC50 [21]: 11.3 µM (not active)

O=C1Nc2ccc(NS(=O)(=O)c3cccs3)c3cccc1c23
IC50 [22]: 5.32 µM (active)

O=C1c2ccccc2C(=O)N1CCCCN(C(=O)c1cc2ccccc2oc1=O)c1ccc(Cl)cc1
IC50 [5]: 21.9 µM (active)

COC(=O)c1sc2nc(N3CCCCC3)c3c(c2c1N)CCCC3
CC50 [4]: > 50 µM (active)
IC50 [5]: > 50 µM (active)
AC50 [23]: 2.95 µM (active)

COc1cc(C(=O)OCC(=O)Nc2c(F)c(F)c(F)c(F)c2F)cc(OC)c1OC
IC50 [24]: > 50 µM (not active)

O=C(COC(=O)Cc1ccccc1F)Nc1ccc2c(c1)OCO2
IC50 [9]: > 100 µM (active)

CCCCCn1c(N2CCC(Cc3ccccc3)CC2)nc2c1c(=O)[nH]c(=O)n2C
EC50 [10]: > 60 µM (not active)
EC50 [25]: 11.9 µM (active)
EC50 [13]: 0.971 µM (active)
EC50 [26]: 12.7 µM (active)
EC50 [27]: 9.08 µM (active)

C/C(=N/Nc1cc(-c2ccccc2)nc(-c2ccccc2)n1)c1ccc(O)cc1
CC50 [28]: 18.2 µM (active)
EC50 [6]: 1.52 µM (active)
EC50 [8]: 1.56 µM (active)
EC50 [27]: 15.9 µM (active)
